Results published in PubChem BioAssay (NCI).
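96-well plates; 48 h exposure; 5 concentrations. Endpoints by linear interpolation between flanking doses. Not reached: highest tested concentration assigned. Here, GI50 denotes the concentration required for 50% inhibition of growth. At the TGI there is no net growth.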

Assays:
Test in all cases: growth of human tumour cells (NCI), 48 h
HL-60(TB) leukemia = system: HL-60(TB) leukemia
HCC-2998 colon = system: HCC-2998 colon
SK-MEL-28 melanoma = system: SK-MEL-28 melanoma
K-562 leukemia = system: K-562 leukemia
T-47D breast = system: T-47D breast
SW-620 colon = system: SW-620 colon
SN12C renal = system: SN12C renal
EKVX NSCLC = system: EKVX NSCLC
OVCAR-8 ovarian = system: OVCAR-8 ovarian
SK-OV-3 ovarian = system: SK-OV-3 ovarian

Compound | TGI (HL-60(TB) leukemia) | TGI (HCC-2998 colon) | TGI (SK-MEL-28 melanoma) | TGI (K-562 leukemia) | TGI (T-47D breast) | TGI (SW-620 colon) | TGI (SN12C renal) | TGI (EKVX NSCLC) | TGI (OVCAR-8 ovarian) | TGI (SK-OV-3 ovarian) | GI50 (SN12C renal)
C=C(C)C1(Sc2ccc(OC)cc2)CC1 | 41.6 µM | 34.2 µM | > 100 µM | > 100 µM | > 100 µM | > 100 µM | 35.4 µM | > 100 µM | > 100 µM | > 100 µM | 
COc1cc2nc(-c3cccs3)nc(Nc3ccccc3C(=O)NN)c2cc1OC | > 100 µM | > 100 µM | > 100 µM | > 100 µM | > 100 µM | > 100 µM | > 100 µM | > 100 µM | > 100 µM | > 100 µM | 
OCc1ccc2c(c1)CC1(Cc3ccccc3C1)C2 | 67.4 µM | > 100 µM | 49.6 µM | 38.1 µM | > 100 µM | 39 µM | 45.8 µM | 80.2 µM | > 100 µM | 84.8 µM | 
CCOc1ccccc1N=NC1C(=O)N(C(=O)CC(=O)Nc2ccccc2C)N=C1C (stereo not drawn) | > 100 µM | > 100 µM | > 100 µM |  | > 100 µM | > 100 µM | > 100 µM | 43.7 µM | > 100 µM | 56.1 µM | 
CCOC(=O)c1ccc2nc3n(c2c1)C(c1c(F)cccc1F)SC3 (stereo not drawn) | > 100 µM | > 100 µM | > 100 µM | > 100 µM | > 100 µM | > 100 µM | > 100 µM | > 100 µM | > 100 µM | > 100 µM | 
COC(=O)NC(Cc1ccccc1)NC(=O)OC(C)(C)C (stereo not drawn) | > 100 µM | > 100 µM | > 100 µM | > 100 µM | > 100 µM | > 100 µM | > 100 µM | > 100 µM | > 100 µM | > 100 µM | 
N=c1ncn(C/C=C/c2ccccc2)c2nc[nH]c12 |  | > 100 µM | > 100 µM | > 100 µM | > 100 µM | > 100 µM | > 100 µM | > 100 µM | > 100 µM | > 100 µM | 
CCCCCCCCCCCC(=O)N(CCCCCCCCC)CC(O)C(O)C(OC1OC(CO)C(O)C(O)C1O)C(O)CO (stereo not drawn) | 45.8 µM | 32 µM | 35.2 µM | 50.2 µM | 44.3 µM | 35.1 µM | 36.1 µM | 31.5 µM | 39.3 µM |  | 
CC1(C)CCC2=C(O1)c1ccccc1C(=Nc1ccc([N+](=O)[O-])cc1)C2=O | > 100 µM | 32.2 µM | 29.8 µM | > 100 µM | 31 µM | 29.6 µM | 29.3 µM | 32.7 µM | > 100 µM | 34.8 µM | 15.9 µM
N#CCCN(CCCCN(CCC#N)C(=O)Nc1ccccc1)C(=O)Nc1ccccc1 | > 100 µM | > 100 µM | > 100 µM | > 100 µM | > 100 µM | > 100 µM | > 100 µM | > 100 µM | > 100 µM | > 100 µM | 
Clc1nc2nc(N3CCNCC3)nc(N3CCCC3)c2[nH]1 | 42.8 µM | 29.5 µM | 39.6 µM | 52.7 µM | 33.6 µM | 45.4 µM | 34.4 µM | 31.8 µM | 30.3 µM | 37.2 µM | 
